From article PMC6125646, “Proceeding From in vivo Functions of Pheromone Receptors: Peripheral-Coding Perception of Pheromones From Three Closely Related Species, Helicoverpa armigera, H. assulta, and Heliothis virescens” (Frontiers in Physiology, 2018) come the findings set out here.

Assay in all cases: single sensillum recording, transgenic fly at1 neurons
Assay [1] deals with T1, HvirOR6.
T1 construct: gene OR6; ORF in pVALIUM20, UAS-OR transgene expressed in Drosophila at1 neurons (Or67dGAL4 knock-in), host endogenous Orco; with Odorant receptor coreceptor (Drosophila melanogaster, endogenous in host neuron)
Set-up: species or system Heliothis virescens. Conditions: agonist; mass loaded on filter paper in stimulus cartridge (10 μL in paraffin oil), 300 ms pulse; not a molar concentration.

The target of assay [2] is T2, HarmOR16 (Helicoverpa armigera, UniProt A0A7D5JJ30).
T2 construct: ORF in pVALIUM20, UAS-OR transgene expressed in Drosophila at1 neurons (Or67dGAL4 knock-in), host endogenous Orco; with Odorant receptor coreceptor (Drosophila melanogaster, endogenous in host neuron)
T2 sequence (A0A7D5JJ30 1-422): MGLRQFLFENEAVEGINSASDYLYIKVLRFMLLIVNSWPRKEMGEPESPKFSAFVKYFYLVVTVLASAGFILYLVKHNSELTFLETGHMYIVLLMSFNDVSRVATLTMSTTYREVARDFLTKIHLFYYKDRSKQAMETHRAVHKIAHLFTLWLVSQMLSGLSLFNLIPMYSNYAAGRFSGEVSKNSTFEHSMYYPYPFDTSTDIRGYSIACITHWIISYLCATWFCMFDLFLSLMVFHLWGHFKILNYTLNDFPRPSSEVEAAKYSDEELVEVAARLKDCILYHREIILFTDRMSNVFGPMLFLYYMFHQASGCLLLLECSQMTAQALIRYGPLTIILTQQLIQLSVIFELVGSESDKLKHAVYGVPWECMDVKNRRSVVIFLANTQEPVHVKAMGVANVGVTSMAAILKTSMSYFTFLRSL
T2 sequence (Q9VNB5 1-486 partner): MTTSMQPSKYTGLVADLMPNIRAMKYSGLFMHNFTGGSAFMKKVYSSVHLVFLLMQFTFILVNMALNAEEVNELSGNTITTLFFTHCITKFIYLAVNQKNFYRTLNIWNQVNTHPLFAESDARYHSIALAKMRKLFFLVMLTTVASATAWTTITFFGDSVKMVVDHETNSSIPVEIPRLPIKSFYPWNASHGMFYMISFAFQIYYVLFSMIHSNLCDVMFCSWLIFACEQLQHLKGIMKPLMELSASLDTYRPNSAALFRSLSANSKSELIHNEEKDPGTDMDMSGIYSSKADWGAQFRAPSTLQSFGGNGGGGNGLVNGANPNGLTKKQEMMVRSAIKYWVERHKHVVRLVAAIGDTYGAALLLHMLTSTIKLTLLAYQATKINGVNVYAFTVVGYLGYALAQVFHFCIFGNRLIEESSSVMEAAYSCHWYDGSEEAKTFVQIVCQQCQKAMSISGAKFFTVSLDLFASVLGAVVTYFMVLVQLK
Conditions: agonist; mass loaded on filter paper in stimulus cartridge (10 μL in paraffin oil), 300 ms pulse; not a molar concentration.

Assay [3] addresses T3, HassOR6 (Helicoverpa assulta, UniProt R4JLZ7).
T3 construct: gene OR6; ORF in pVALIUM20, UAS-OR transgene expressed in Drosophila at1 neurons (Or67dGAL4 knock-in), host endogenous Orco; with Odorant receptor coreceptor (Drosophila melanogaster, endogenous in host neuron)
T3 sequence (R4JLZ7 1-425): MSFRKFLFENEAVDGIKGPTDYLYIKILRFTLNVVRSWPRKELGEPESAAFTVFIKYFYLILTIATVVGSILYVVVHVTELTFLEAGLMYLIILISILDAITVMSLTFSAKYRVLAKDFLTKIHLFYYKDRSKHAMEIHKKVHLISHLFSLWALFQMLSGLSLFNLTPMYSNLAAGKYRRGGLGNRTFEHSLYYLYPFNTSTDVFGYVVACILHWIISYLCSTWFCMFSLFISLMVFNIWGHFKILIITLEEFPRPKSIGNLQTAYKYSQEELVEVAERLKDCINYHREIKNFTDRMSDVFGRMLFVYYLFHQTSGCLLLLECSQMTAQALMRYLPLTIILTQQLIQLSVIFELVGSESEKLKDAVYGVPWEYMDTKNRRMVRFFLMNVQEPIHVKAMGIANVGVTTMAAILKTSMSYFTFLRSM
T3 sequence (Q9VNB5 1-486 partner): T2 sequence (Q9VNB5 1-486 partner)
Conditions: agonist; mass loaded on filter paper in stimulus cartridge (10 μL in paraffin oil), 300 ms pulse; not a molar concentration.

Assay [4] has as its target T4, HarmOR6 (Helicoverpa armigera, UniProt R4JSE3).
T4 construct: gene OR6; ORF in pVALIUM20, UAS-OR transgene expressed in Drosophila at1 neurons (Or67dGAL4 knock-in), host endogenous Orco; with Odorant receptor coreceptor (Drosophila melanogaster, endogenous in host neuron)
T4 sequence (R4JSE3 1-425): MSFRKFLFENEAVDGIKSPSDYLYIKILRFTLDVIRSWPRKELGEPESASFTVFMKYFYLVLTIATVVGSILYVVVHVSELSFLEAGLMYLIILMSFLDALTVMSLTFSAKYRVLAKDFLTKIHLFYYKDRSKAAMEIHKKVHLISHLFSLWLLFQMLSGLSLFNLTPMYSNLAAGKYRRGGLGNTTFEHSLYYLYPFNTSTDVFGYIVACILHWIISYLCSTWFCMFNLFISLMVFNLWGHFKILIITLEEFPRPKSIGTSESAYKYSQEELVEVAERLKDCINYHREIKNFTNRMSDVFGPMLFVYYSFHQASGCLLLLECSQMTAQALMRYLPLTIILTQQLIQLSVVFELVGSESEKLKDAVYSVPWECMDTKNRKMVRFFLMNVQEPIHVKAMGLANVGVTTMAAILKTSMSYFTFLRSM
T4 sequence (Q9VNB5 1-486 partner): T2 sequence (Q9VNB5 1-486 partner)
Conditions: agonist; mass loaded on filter paper in stimulus cartridge (10 μL in paraffin oil), 300 ms pulse; not a molar concentration.

Assay [5] relates to T5, HvirOR13.
T5 construct: gene OR13; ORF in pVALIUM20, UAS-OR transgene expressed in Drosophila at1 neurons (Or67dGAL4 knock-in), host endogenous Orco; with Odorant receptor coreceptor (Drosophila melanogaster, endogenous in host neuron)
Further details: species or system Heliothis virescens. Conditions: agonist; mass loaded on filter paper in stimulus cartridge (10 μL in paraffin oil), 300 ms pulse; not a molar concentration.

For assay [6], the target named is T6, HarmOR13 (Helicoverpa armigera, UniProt A0A075TD52).
T6 construct: gene OR13; ORF in pVALIUM20, UAS-OR transgene expressed in Drosophila at1 neurons (Or67dGAL4 knock-in), host endogenous Orco; with Odorant receptor coreceptor (Drosophila melanogaster, endogenous in host neuron)
T6 sequence (A0A075TD52 1-425): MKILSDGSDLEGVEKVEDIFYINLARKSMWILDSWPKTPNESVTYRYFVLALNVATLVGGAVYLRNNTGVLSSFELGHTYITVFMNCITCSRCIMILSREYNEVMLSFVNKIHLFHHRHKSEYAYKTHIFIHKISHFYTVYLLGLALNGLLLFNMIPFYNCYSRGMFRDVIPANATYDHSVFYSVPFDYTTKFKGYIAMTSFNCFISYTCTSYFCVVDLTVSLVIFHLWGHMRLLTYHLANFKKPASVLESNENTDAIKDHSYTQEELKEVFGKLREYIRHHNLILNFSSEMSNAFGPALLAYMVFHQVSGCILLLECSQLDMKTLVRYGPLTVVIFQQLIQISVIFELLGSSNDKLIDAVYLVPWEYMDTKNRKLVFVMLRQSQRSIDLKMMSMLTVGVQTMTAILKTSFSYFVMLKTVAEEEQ
T6 sequence (Q9VNB5 1-486 partner): T2 sequence (Q9VNB5 1-486 partner)
Conditions: agonist; mass loaded on filter paper in stimulus cartridge (10 μL in paraffin oil), 300 ms pulse; not a molar concentration.

Assay [7] concerns the target T7, HassOR13 (Helicoverpa assulta, UniProt A0A0B4ZYC6).
T7 construct: gene OR13; ORF in pVALIUM20, UAS-OR transgene expressed in Drosophila at1 neurons (Or67dGAL4 knock-in), host endogenous Orco; with Odorant receptor coreceptor (Drosophila melanogaster, endogenous in host neuron)
T7 sequence (A0A0B4ZYC6 1-425): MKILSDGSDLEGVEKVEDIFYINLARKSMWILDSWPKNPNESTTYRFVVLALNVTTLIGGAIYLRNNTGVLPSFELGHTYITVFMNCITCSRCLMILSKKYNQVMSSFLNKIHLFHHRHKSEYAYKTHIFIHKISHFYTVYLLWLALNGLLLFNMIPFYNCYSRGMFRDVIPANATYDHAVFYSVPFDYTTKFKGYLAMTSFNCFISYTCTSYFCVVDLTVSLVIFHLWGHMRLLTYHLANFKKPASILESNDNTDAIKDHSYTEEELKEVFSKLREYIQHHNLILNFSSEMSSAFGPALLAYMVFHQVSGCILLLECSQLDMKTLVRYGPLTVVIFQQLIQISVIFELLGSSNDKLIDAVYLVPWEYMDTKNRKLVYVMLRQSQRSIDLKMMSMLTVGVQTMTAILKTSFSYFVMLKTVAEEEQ
T7 sequence (Q9VNB5 1-486 partner): T2 sequence (Q9VNB5 1-486 partner)
Conditions: agonist; mass loaded on filter paper in stimulus cartridge (10 μL in paraffin oil), 300 ms pulse; not a molar concentration.

Assay [8] concerns T8, HvirOR16.
T8 construct: gene OR16; ORF in pVALIUM20, UAS-OR transgene expressed in Drosophila at1 neurons (Or67dGAL4 knock-in), host endogenous Orco; with Odorant receptor coreceptor (Drosophila melanogaster, endogenous in host neuron)
Set-up: species or system Heliothis virescens. Conditions: agonist; mass loaded on filter paper in stimulus cartridge (10 μL in paraffin oil), 300 ms pulse; not a molar concentration.

In assay [9] the target is T2, HarmOR16. Type of assay: cell-based. Conditions: agonist; odorant on filter paper in stimulus cartridge, 300 ms pulse.

Structures are written as SMILES.

As to `CCCC/C=C\CCCCCCCC=O` [Z9-14:Ald, (Z)-9-tetradecenal], the figures for the EC50 in [1] and in [2] were 2.75e-05 g and 0.00126 g, respectively.
With `CCCC/C=C\CCCCCCCCO` [Z9-14:OH], the EC50 in assay [3] turned out to be 9.66e-05 g; in [1], 0.000126 g; in assay [4], 3.85e-05 g.
Regarding `CCCCCC/C=C\CCCCCCCCO` [Z9-16:OH, (Z)-9-hexadecenol], the results for the EC50 in assay [3] and in [4] were 5.99e-05 g and 5.84e-05 g, respectively.
As for `CCCC/C=C\CCCCCCCCCC=O` [Z11-16:Ald, (Z)-11-hexadecenal], the EC50 is 0.000216 g in assay [5], 0.000213 g in assay [6] and 0.000242 g in assay [7].
Take `CCCC/C=C\CCCCCCCCCCOC(C)=O` [Z11-16:OAc, (Z)-11-hexadecenyl acetate]: the EC50 in [8] came out at 8.88e-05 g. Further, the “single sensillum recording, transgenic fly at1 neurons” value in [9] was “responded to the sex pheromone components Z9-14:Ald, Z11-16:OH, and Z11-16:OAc”.
For the compound `CCCC/C=C\CCCCCCCCCCO` [Z11-16:OH, (Z)-11-hexadecenol], the EC50 in [8] turned out to be 3.89e-05 g; in assay [2], 7.94e-05 g.
